test: gradient 5% acetonitrile 3 min, to 50% in 2 min, to 85% in 15 min, held 3 min, 100 µL/min; settings: column: Zorbax Extend-C18 2.1 x 50 mm; eluents: water / acetonitrile, 0.1% formic acid
In short: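 A Zorbax Extend-C18 column (2.1 × 50 mm, 1.8 μm) run at 100 μL/min with water and acetonitrile, both containing 0.1% formic acid, separated mixtures of ~100 pure standards. The HPLC was coupled to a quadrupole time-of-flight mass spectrometer operated in positive and negative ionization mode, with dead and dwell volumes of 40 μL and 900 μL. Each retention time was taken from a computationally picked adduct peak that was then manually inspected.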

SMILES | RP-LC retention time [s]
O=C(Nc1cccn2cnnc12)c1ccc(Cl)s1 | 719
Cc1ccc(CNC(=O)c2cnc(-c3ccccc3)nc2-c2ccncc2)cc1C | 916
O=C(Cc1ccc(Cl)cc1)NCc1nc(-c2ccc(-c3csc(C4CC4)n3)cc2)no1 | 1110
C[C@H]1CC[C@]2(NC1)O[C@H]1C[C@H]3[C@@H]4CC[C@H]5C[C@@H](O)CC[C@]5(C)[C@H]4CC[C@]3(C)[C@H]1[C@@H]2C | 776
COCCN(CC(=O)N1CCc2sccc2C1COc1ccccc1OC)C(=O)C(C)C (stereo unspecified) | 845
COc1cccc(N2N=NC3C(=O)N(c4ccccc4)C(=O)C32)c1 (stereo unspecified) | 922
O=C(Nc1nnc(-c2ccsc2)o1)c1ccc2nsnc2c1 | 698
CCCCN(C)c1ccc(NC(=O)c2cccs2)cc1C(=O)O | 623
COc1ccccc1Nc1c(-c2cccc(O)c2)nc2cnccn12 | 681
CC(=O)c1cccc(NC(=O)Cn2c(-c3cnccn3)nc(C)c(C)c2=O)c1 | 650
COc1ccc(NC(=O)N2[C@H]3CC[C@@H]2c2cnc(-c4ccccc4)nc2C3)c(OC)c1 | 894
Cc1ccc(-c2cc3c(=O)n(Cc4nc(-c5ccccc5Br)no4)ncn3n2)c(C)c1 | 1250
CC(=O)Nc1ccc(S(=O)(=O)NCCc2cn(CC(C)C)c3ncccc23)cc1 | 726
COc1cccc(-c2noc(Cn3c(=O)n(-c4ccccc4F)c(=O)c4sccc43)n2)c1 | 957
CCOc1ccccc1CNc1nc2ccncc2n(CC)c1=O | 683
Cc1cnc2c(N)cc(C)c(C)c2c1 | 715
C=CCn1c(=O)c2ccc(C(=O)NCC(C)C)cc2n2c(=O)n(CC(N)=O)nc12 | 643
CN(CC1CCOC1)C(=O)Nc1cc(F)c(F)c(F)c1 (stereo unspecified) | 764
CCCn1cnc2cc(-c3noc(C4CC(=O)N(c5ccccc5)C4)n3)ccc21 (stereo unspecified) | 711
CC(C)(C)c1ccc(-c2nc(C3CC(=O)N(c4ccc(F)c(Cl)c4)C3)no2)cc1 (stereo unspecified) | 1360
c1ccc(-c2nc3cc(-c4noc(-c5ccccn5)n4)ccc3o2)cc1 | 1120

Second part, the compound after the results:

RP-LC retention time [s] | SMILES
749 | CCOC(=O)Cc1ccc(NC(=O)N2CCc3cn(C)c4cccc(c34)C2)cc1
655 | COc1ccc2c(=O)c(C(=O)c3ccncc3)cn(CC(=O)NC3CCCCC3)c2c1
674 | COc1cccc(NC(=O)CCC2CCN(c3cc(NC4CC4)ncn3)CC2)c1
748 | O=C(NCc1ccccc1)C1CCCN(S(=O)(=O)c2c[nH]c(C(=O)N3CCCC3)c2)C1 (stereo unspecified)
801 | Cn1cc(S(=O)(=O)N2CCOCC2)cc1C(=O)Nc1ccccc1
883 | COC(=O)c1cc(S(=O)(=O)N2CCCC2C(=O)Nc2cccc(F)c2)cn1C (stereo unspecified)
765 | CCC(C)C(NC(=O)c1ccc(C)cc1)C(=O)Nc1nc2ccccc2[nH]1 (stereo unspecified)
613 | Cc1noc(C)c1CN1CCC(NC(=O)Cc2ccccc2Cl)C1 (stereo unspecified)
583 | Cc1cccc(CN2C[C@@H]3C(=O)N(C)C(=O)[C@@H]3C2)c1
881 | COC(=O)c1ccc(NS(=O)(=O)c2ccc3c(c2)C(=O)N(C)c2ncccc2O3)cc1
613 | Cc1ccccc1S(=O)(=O)Cc1ccc(C(=O)N2CCN(c3ccccn3)CC2)o1
1040 | O=C(NCc1ccccc1)c1cc(-c2ccc(F)cc2)ns1
818 | CN1C(=O)c2cccnc2Sc2cc(NC(=O)CCc3ccccc3)ccc21
809 | COC(=O)c1c(C)[nH]c(C(=O)N2CCCC(C(=O)NCc3ccc(Cl)cc3)C2)c1C (stereo unspecified)
626 | CC(=O)Nc1ccc(C(=O)NC2CCN(c3cc(-c4ccccc4)[nH]n3)C2)cc1 (stereo unspecified)

— the METLIN SMRT retention time set (Domingo-Almenara et al. 2019)
